The subject of the test is TNF-α-positive cells. The test is described as follows: Immunohistochemistry, TNF-α-positive cells after CCI injury. In kind it is in vivo, rat. To be noted: single-dose 30 mg kg^-1 i.p.; cortical tissue adjacent to contusion core, 1 day post-injury. As to the method: A previously described CCI injury procedure was utilized (Chen et al., 2003). Male Sprague-Dawley rats, which have body weight of 250-300 g, were anaesthetized with sodium pentobarbital (i.p.; 50 mgkg^−1; Rhone Merieux, Harlow, UK) and placed in a stereotaxic frame. A 5-mm craniotomy was performed over the left parietal cortex, centered on the coronal suture and 3 mm lateral to the sagittal suture. Considerable care was taken to avoid injury to the underlying dura. Injury was made using a pneumatic piston with a rounded metal tip (2.5 mm diameter) that was angled 22.5° C. to the vertical so that the tip was perpendicular with the brain surface at the centre of the craniotomy. A velocity of 4 ms^−1 and a deformation depth 2 mm below the dura were used. The bone flap was immediately replaced and sealed, and the scalp was closed with sutures. Body temperature was monitored throughout the surgery by a rectal probe; temperature was maintained at 37.0±0.5° C. using a heated pad. […] Testing after injury was as follows: (1) real-time quantitative RT-PCR analysis for TNF-α, IL-1β and IL-6 mRNA expression at 6 h post-injury (n=7 for each group); (2) FluoroJade B (FJB) staining, TNF-α, IL-1β and IL-6 immunohistochemistry, as well as ELISA at 24 h post-injury to assess degenerative neurons and to determine cytokine expression (n=7 for each group). […]

The record followed here is patent US20100222421A1, “Usage of Baicalein in the Preparation of a Pharmaceutical Composition for the Treatment of Traumatic Brain Injury” (National Defense Medical Center, priority 2009, published 2010).

`O=c1cc(-c2ccccc2)oc2cc(O)c(O)c(O)c12` [baicalein]: the “reduction in TNF-α-positive cells relative to vehicle” value came out at 37%.
